Data from publication PMC11209911 (ACS Omega, 2024).

Target: α-glucosidase
Experiment: α-glucosidase inhibitor screening kit
Assay type: biochemical

IC50: 66.1 µM
Compound: C=C/C=C(\C)CC[C@@H]1C[C@@H](O)CC(=O)O1 [30b, (4R,6R)-4-Hydroxy-6-((E)-3-methylhexa-3,5-dien-1-yl)tetrahydro-2H-pyran-2-one]
